Measured values from patent US6258790A, “Antisense modulation of integrin α4 expression” (Isis Pharmaceuticals, Inc., priority 1999, dated 2001).
Several values for one entry are separate records, joined by “and”; a condition that tells them apart may be missing. Equal entries are not always repeated.

Tests used:
murine integrin α4 mRNA [1] = experiment: Antisense inhibition of murine integrin α4 mRNA expression in P388D (IL-1) macrophage cells (RNA gel, PCR-labeled probe); assay type: cell-based, mouse; conditions: 100 nM; for % Control (murine integrin α4 mRNA) / % Inhib (murine integrin α4 mRNA): Table 8, P388D (IL-1) cells, 3 ug/ml lipofectin; for activity in the mRNA screen: Table 8 assay; for % Control / % Inhib.: Table 9, averages of duplicate samples
Protocol: Oligonucleotides were initially screened in murine P388D (IL-1) macrophage cells (American Type Culture Collection, Manassas Va.) for 4 hours at an oligonucleotide concentration of 100 nM in 3 ug/ml lipofectin.

murine integrin α4 = experiment: Antisense inhibition of murine integrin α4 protein expression in IC-21 macrophage cells (flow cytometry, CD49d-PE); assay type: cell-based, mouse; conditions: for % Control (integrin α4 protein) / % Inhib (integrin α4 protein): Table 11
Protocol: Murine IC-21 macrophage cells (American Type Culture Collection, Manassas, Va.) were used for further study. Additional oligonucleotides were designed to target murine integrin α4. These are shown in Table 10; all 2' MOE nucleotides are shown in bold and remaining positions are 2' deoxy. All 2'-MOE cytosines in these compounds are 5' methylcytosines. IC-21 cells were seeded at 5×10^4 cell/well plates two days before assay. […] Wells were triplicates.
Cells (triplicates) were seeded at 2.5×10^4 cells/well in 24-well plates the day before treatment. Oligonucleotide concentrations were 0.2, 1, 5, 25 and 50 nM in 3 ug/ml LIPOFECTIN. Cells were harvested with 2 mM EDTA for 4 minutes, then 1 ml of 2% BSA, 0.2% azide was added per contents of each well.
IC-21 cells were treated with 0.3, 1, 3, 10 and 30 nM oligonucleotide with 3 ug/ml LIPOFECTIN for 4 hours. Cells were incubated for 24 hours, harvested with trypsin, stained with 2 ug/ml CD49d-PE and rat IgG2B as in previous examples.
These compounds were tested for ability to inhibit integrin α4 protein expression.

murine integrin α4 mRNA [2] = experiment: Antisense inhibition of murine integrin α4 mRNA expression in P388D (IL-1) macrophage cells (RNA gel, PCR-labeled probe); assay type: cell-based, mouse; conditions: Table 9, averages of duplicate samples
murine integrin α4 RNA = experiment: Dose response effect on integrin α4 RNA levels in IC-21 cells; assay type: cell-based, mouse; conditions: for Percent inhib. (integrin α4 RNA) / Percent of control (integrin α4 RNA): Table 14, duplicate
Protocol: another dose response experiment was done to determine the IC50 of ISIS 16433 for inhibition of integrin α4 RNA. IC-21 cells were tested in duplicate with ISIS 16433 at 6.25, 12.5, 25 or 50 nM with 3 ug/ml LIPOFECTIN.
RNA was purified with Qiagen Qiashredder/RNEASY™ Kit according to manufacturer's directions. Probes were random primed using a prime-a-Gene Kit (Promega, Madison, Wis.).

human integrin α4 [3] = experiment: Inhibition of human integrin α4 protein levels by antisense oligonucleotides (LIPOFECTIN, flow cytometry with CD49d-FITC) in A375 melanoma cells; assay type: cell-based; conditions: Table 24; A375 cells; lipofectin; as Example 8
human integrin α4 [4] = experiment: Integrin α4 protein expression in A375 cells after electroporation of oligonucleotide (flow cytometry); assay type: cell-based; conditions: 24 hours
Protocol: A375 cells were treated with ISIS 107245, 107248, 107252, 107255 and 107259 by electroporation at 175 volts, r=1, c=1000, 0.2 ml Opti-MEM, 1×10^6 cells /ml, 2 mm gap electrode using a BTX Electro Cell Manipulator 600 (Genetronics, San Diego Calif.). Oligonucleotide concentrations were 1, 3, 10 and 30 μM. Cells were harvested 24 hours after oligonucleotide treatment and strained with 2 ug/ml CD49d-FITC for flow cytometry as in the previous examples.
ISIS 107248 was compared directly to ISIS 27104 for ability to inhibit integrin α4 expression in A375 melanoma cells. Oligonucleotides were electroporated into cells as in the previous example.

[5] = IC-21 cells, 25 nM, triplicates

For “15600 (antisense CACGCCCCGTTTCTGTGGCC; phosphorothioate, 2'-MOE, further chemistry not given here) [compound 15600]”, the “% Control (murine integrin α4 mRNA)” value (murine integrin α4 mRNA [1]) was 93% and the “% Inhib (murine integrin α4 mRNA)” value (murine integrin α4 mRNA [1]) was 07%.
In the case of “15601 (antisense CACGCCCCGTTTCTGTGGCC; phosphodiester, 2'-MOE, further chemistry not given here) [compound 15601]”, the “% Control (murine integrin α4 mRNA)” value (murine integrin α4 mRNA [1]) is reported as 60% and the “% Inhib (murine integrin α4 mRNA)” value (murine integrin α4 mRNA [1]) is reported as 40%.
In the case of “15602 (antisense CACGCCCCGTTTCTGTGGCC; phosphorothioate DNA, further chemistry not given here) [compound 15602]”, the “% Control (murine integrin α4 mRNA)” value (murine integrin α4 mRNA [1]) is reported as 48% and the “% Inhib (murine integrin α4 mRNA)” value (murine integrin α4 mRNA [1]) is reported as 52%.
In the case of “15603 (antisense GGATGCTTCAGGCTCTGGCC; phosphorothioate DNA, further chemistry not given here) [compound 15603]”, the “% Control (murine integrin α4 mRNA)” value (murine integrin α4 mRNA [1]) is reported as 38% and the “% Inhib (murine integrin α4 mRNA)” value (murine integrin α4 mRNA [1]) is reported as 62%.
With “15604 (antisense GGAGCGATCGTAGTGGCCAG; phosphorothioate DNA, further chemistry not given here) [compound 15604]” the “% Control (murine integrin α4 mRNA)” value (murine integrin α4 mRNA [1]) was 134%.
In the case of “15605 (antisense CCGGTGCTGGCAGGCGACAG; phosphorothioate DNA, further chemistry not given here) [compound 15605]”, the “% Control (murine integrin α4 mRNA)” value (murine integrin α4 mRNA [1]) is reported as 84% and the “% Inhib (murine integrin α4 mRNA)” value (murine integrin α4 mRNA [1]) is reported as 16%.
With “15606 (antisense GATGAAGTGCAGCAGCGTGT; phosphorothioate DNA, further chemistry not given here) [compound 15606]” the “% Control (murine integrin α4 mRNA)” value (murine integrin α4 mRNA [1]) was 72% and the “% Inhib (murine integrin α4 mRNA)” value (murine integrin α4 mRNA [1]) was 28%.
With “15607 (antisense GGCCACTGACCAGAGTTGCA; phosphorothioate DNA, further chemistry not given here) [compound 15607]” the “% Control (murine integrin α4 mRNA)” value (murine integrin α4 mRNA [1]) was 26%, the “% Inhib (murine integrin α4 mRNA)” value (murine integrin α4 mRNA [1]) was 74% and the “activity in the mRNA screen” value (murine integrin α4 mRNA [1]) was “most active”. For the same substance, the “% Control” value (murine integrin α4 mRNA [1]) was 55%, the “% Inhib.” value (murine integrin α4 mRNA [1]) was 45% and the “% Control (integrin α4 protein)” value (murine integrin α4; [5]) was 82%. The “% Inhib (integrin α4 protein)” value (murine integrin α4; [5]) was 18%, the “% Control” value (murine integrin α4 mRNA [2]; 12.5 nM) was 78% and the “% Inhib.” value (murine integrin α4 mRNA [2]; 12.5 nM) was 22%. For the same substance, the “% Control” value (murine integrin α4 mRNA [2]; 25 nM) was 67%, the “% Inhib.” value (murine integrin α4 mRNA [2]; 25 nM) was 33% and the “% Control” value (murine integrin α4 mRNA [2]; 50 nM) was 50%. The “% Inhib.” value (murine integrin α4 mRNA [2]; 50 nM) was 50%.
In the case of “15608 (antisense CCGCAGCCATGCGCTCTTGG; phosphorothioate DNA, further chemistry not given here) [compound 15608]”, the “% Control (murine integrin α4 mRNA)” value (murine integrin α4 mRNA [1]) is reported as 16%, the “% Inhib (murine integrin α4 mRNA)” value (murine integrin α4 mRNA [1]) is reported as 84% and the “activity in the mRNA screen” value (murine integrin α4 mRNA [1]) is reported as “most active”. For the same substance, the “% Control” value (murine integrin α4 mRNA [1]) was 39%, the “% Inhib.” value (murine integrin α4 mRNA [1]) was 61% and the “% Control (integrin α4 protein)” value (murine integrin α4; [5]) was 63%. For the same substance, the “% Inhib (integrin α4 protein)” value (murine integrin α4; [5]) was 37%, the “% Control” value (murine integrin α4 mRNA [2]; 12.5 nM) was 59% and the “% Inhib.” value (murine integrin α4 mRNA [2]; 12.5 nM) was 41%. The “% Control” value (murine integrin α4 mRNA [2]; 25 nM) was 29%, the “% Inhib.” value (murine integrin α4 mRNA [2]; 25 nM) was 71% and the “% Control” value (murine integrin α4 mRNA [2]; 50 nM) was 23%. For the same substance, the “% Inhib.” value (murine integrin α4 mRNA [2]; 50 nM) was 77%.
In the case of “15609 (antisense CACCTCGCTTCCGCAGCCAT; phosphorothioate DNA, further chemistry not given here) [compound 15609]”, the “% Control (murine integrin α4 mRNA)” value (murine integrin α4 mRNA [1]) is reported as 07%, the “% Inhib (murine integrin α4 mRNA)” value (murine integrin α4 mRNA [1]) is reported as 93% and the “activity in the mRNA screen” value (murine integrin α4 mRNA [1]) is reported as “most active”. For the same substance, the “% Control” value (murine integrin α4 mRNA [1]) was 57%, the “% Inhib.” value (murine integrin α4 mRNA [1]) was 43% and the “% Control (integrin α4 protein)” value (murine integrin α4; [5]) was 57%. The “% Inhib (integrin α4 protein)” value (murine integrin α4; [5]) was 43%, the “% Control” value (murine integrin α4 mRNA [2]; 12.5 nM) was 54% and the “% Inhib.” value (murine integrin α4 mRNA [2]; 12.5 nM) was 46%. For the same substance, the “% Control” value (murine integrin α4 mRNA [2]; 25 nM) was 24%, the “% Inhib.” value (murine integrin α4 mRNA [2]; 25 nM) was 76% and the “% Control” value (murine integrin α4 mRNA [2]; 50 nM) was 28%. The “% Inhib.” value (murine integrin α4 mRNA [2]; 50 nM) was 72%.
With “16433 (CCGCAGCCATGCGCTCTTGG; phosphorothioate, 2'-MOE/deoxy, further chemistry not given here) [compound 16433]” the IC50 (murine integrin α4; IC-21 cells) was roughly 1 nM, the “inhibition of protein levels” value (murine integrin α4; IC-21 cells, 30 nM) was “inhibit protein levels to below basal levels” and the “% Control (integrin α4 protein)” value (murine integrin α4; [5]) was 23%. For the same substance, the “% Inhib (integrin α4 protein)” value (murine integrin α4; IC-21 cells, 25 nM, triplicates, 0.025 µM) was 77% and > 50%, the “% Inhib.” value (murine integrin α4; Table 12, 0.2 nM, triplicates) was 15% and the “% of control” value (murine integrin α4; Table 12, 0.2 nM, triplicates) was 85%. The “% Inhib.” value (murine integrin α4; Table 12, 1 nM, triplicates) was 38%, the “% of control” value (murine integrin α4; Table 12, 1 nM, triplicates) was 62% and the “% Inhib.” value (murine integrin α4; Table 12, 5 nM, triplicates) was 63%. For the same substance, the “% of control” value (murine integrin α4; Table 12, 5 nM, triplicates) was 37%, the “% Inhib.” value (murine integrin α4; Table 12, 25 nM, triplicates) was 80% and the “% of control” value (murine integrin α4; Table 12, 25 nM, triplicates) was 20%. For the same substance, the “% Inhib.” value (murine integrin α4; Table 12, 50 nM, triplicates) was 70%, the “% of control” value (murine integrin α4; Table 12, 50 nM, triplicates) was 30% and the “% Inhib.” value (murine integrin α4; Table 13, 0.3 nM, 24 hours) was 11%. For the same substance, the “% of control” value (murine integrin α4; Table 13, 0.3 nM, 24 hours) was 89%, the “% Inhib.” value (murine integrin α4; Table 13, 1 nM, 24 hours) was 32% and the “% of control” value (murine integrin α4; Table 13, 1 nM, 24 hours) was 68%. The “% Inhib.” value (murine integrin α4; Table 13, 3 nM, 24 hours) was 75%, the “% of control” value (murine integrin α4; Table 13, 3 nM, 24 hours) was 25% and the “% Inhib.” value (murine integrin α4; Table 13, 10 nM, 24 hours) was 97%. For the same substance, the “% of control” value (murine integrin α4; Table 13, 30 nM, 24 hours) was -14%, the “% Control” value (murine integrin α4; Table 16, 0.3 nM) was 146% and the “% Control” value (murine integrin α4; Table 16, 1 nM) was 94%. For the same substance, the “% Control” value (murine integrin α4; Table 16, 3 nM) was 64%, the “% Inhib.” value (murine integrin α4; Table 16, 3 nM) was 36% and the “% Control” value (murine integrin α4; Table 16, 10 nM) was 02%. The “% Inhib.” value (murine integrin α4; Table 16, 10 nM) was 98%, the IC50 (murine integrin α4 RNA; IC-21 cells, read-out: IC50 for integrin α4 RNA reduction) was roughly 10 nM and the “Percent inhib. (integrin α4 RNA)” value (murine integrin α4 RNA; 6.25 nM) was 41%. For the same substance, the “Percent of control (integrin α4 RNA)” value (murine integrin α4 RNA; 6.25 nM) was 59%, the “Percent inhib. (integrin α4 RNA)” value (murine integrin α4 RNA; 12.5 nM) was 44% and the “Percent of control (integrin α4 RNA)” value (murine integrin α4 RNA; 12.5 nM) was 46%. For the same substance, the “Percent inhib. (integrin α4 RNA)” value (murine integrin α4 RNA; 25 nM) was 72%, the “Percent of control (integrin α4 RNA)” value (murine integrin α4 RNA; 25 nM) was 28% and the “Percent inhib. (integrin α4 RNA)” value (murine integrin α4 RNA; 50 nM) was 57%. For the same substance, the “Percent of control (integrin α4 RNA)” value (murine integrin α4 RNA; 50 nM) was 43%.
With “107259 (antisense GGAACACAGCCCGTAGGAAA; chemistry not given here) [compound 107259]” the “% Control” value (human integrin α4 [3]) was 37%, the “% Control” value (human integrin α4 [4]; Table 25, 1 nM as printed) was 17.7% and the “% Control” value (human integrin α4 [4]; Table 25, 10 nM) was 42.9%. For the same substance, the “% Control” value (human integrin α4 [4]; Table 25, 30 nM) was 19.4%.
